Molecules are shown by their SMILES. Several values for one entry are separate records, joined by “and”; a condition that tells them apart may be missing. Identical values can stand only once.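 48-hour exposure; five concentrations; linearly interpolated endpoints. Here, GI50 denotes the concentration required for 50% inhibition of growth. TGI: concentration producing complete growth inhibition.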

The text below walks through data of PubChem BioAssay (NCI).

What all share (experiment): NCI tumour cell line growth inhibition, 48 h
The subject of test [1] is MDA-N.
The test system of test [2] is P388/ADR leukemia.
The test system of test [3] is SNB-78 CNS.
Test [4] has as its system P388 leukemia.
Test [5] deals with DMS 273 small cell lung.
Test [6] relates to DLD-1 colon.
In test [7] the test system is DMS 114 small cell lung.
Test [8] has as its system KM20L2 colon.
Test [9] relates to HOP-18 NSCLC.
In test [10] the test system is RXF-631 renal.
The test system of test [11] is XF 498 CNS.

In test [1], `O=C1CC2OCC=C3CN4CCC56c7ccccc7N1C5C2C3CC46O` (centres undefined) gave a TGI above 100 µM.
Same read-out and setting: under `Cc1ccc(CNc2ccc(Br)cc2)cc1` stands above 100 µM.
For `O=S1(=O)N2CN3CN(C2)CN1C3`, the TGI in [2] is 44 µM; in test [3], 118 µM; in test [4], 47.6 µM; in [5], > 31.6 µM and 142 µM; in test [6], 96.8 µM and 97.5 µM; in test [7], 55.3 µM. The TGI in test [8] is 180 µM; in test [9], > 86.4 µM and 91.6 µM. Moreover, the GI50 in test [5] is 32.8 µM; in [6] it was 30.1 µM; in test [8], 37.1 µM; in test [9] it was 24.7 µM.
Take `CCCCC1=CSC(c2ccccc2)=C(c2ccccc2)S1`: the TGI in [10], in test [3], in test [5], in test [6], in test [7] and in [8] was above 100 µM throughout. For the same molecule, the TGI in [9] is above 100 µM.
`Oc1ccc(Br)cc1C=Nc1cccc(C(F)(F)F)c1` displayed a TGI in test [1] above 100 µM.
With `O=[N+]([O-])c1ccc(C2=Nc3ccccc3S(=O)C(c3ccccc3)C2)cc1` (centres undefined), the TGI in [10] was determined as 40.1 µM; in test [5], 52.5 µM; in [11], 47.9 µM; in test [6], 38.4 µM; in [7], 42.8 µM; in test [8], 57.8 µM. In [9], this molecule came in with a TGI above 100 µM.
Consider `Nc1nncc2c1c(Br)cn2C1OC(CO)C(O)C1O` (centres undefined), for which the TGI in [10] is above 100 µM; in test [3], above 100 µM; in [5] it was above 100 µM; in [11], above 100 µM; in [6], above 53 µM; in [7], 62.6 µM. The TGI in [8] and in test [9] was above 100 µM throughout.
On to `O=C(O/N=C1\CCCC\C1=C/c1ccccc1)c1ccc([N+](=O)[O-])cc1`, for which the TGI in [10], in test [3], in [5], in test [6], in test [7] and in test [8] was above 100 µM each time. For the same molecule, the TGI in test [9] is above 100 µM.
Turning to `Cc1ccc(NC(=O)CCCC(=O)CC(=O)c2ccc(Br)cc2)cc1`, the TGI in test [10], in [3], in test [5], in test [6], in test [7] and in test [8] was above 100 µM throughout. In test [9], this molecule had a TGI above 100 µM.
For `O=C1c2ccccc2C(=O)c2cc3c(cc21)CS(=O)C3`, the TGI in test [5], in [6], in test [7], in test [8] and in test [9] was above 100 µM in each case.
Regarding `O=C1C(c2ccccc2)=C(c2ccccc2)C(c2ccc(Cc3ccc(C4=C(c5ccccc5)C(=O)C(c5ccccc5)=C4c4ccccc4)cc3)cc2)=C1c1ccccc1`, the TGI in test [3], in test [5], in [11], in test [6], in test [7] and in [8] was above 100 µM throughout. The same molecule displayed a TGI in [9] above 100 µM.
Regarding `Cc1ccc(NC(=O)CCc2nc(=S)[nH][nH]2)cc1`, the TGI in test [10], in test [3], in [5], in test [11], in [6] and in test [7] was above 100 µM in each case. For the same molecule, the TGI in [8] and in test [9] was above 100 µM throughout.
Regarding `C=C1C[C@H]2C=Nc3cc(OCCCOc4cc5c(cc4OC)C(=O)N4CC(=C)C[C@H]4C=N5)c(OC)cc3C(=O)N2C1`, the TGI in test [1] was determined as 0.0256 µM.
In the case of `N#CCCn1[nH]c(=O)c(Cl)c(Cl)c1=O`, the TGI in [10] came out at 37.1 µM; in [3] it was 41.9 µM; in test [11] it was 29.6 µM; in test [6], 27 µM; in [7] it was 36.5 µM; in test [8], 29.7 µM. Besides, the TGI in [9] stood at 30.6 µM.
In the case of `CCOC(=O)C(C)(NC(=O)c1ccc(NCc2ccc3nc(NC(=O)c4ccccc4)nc(NC(=O)c4ccccc4)c3c2)cc1)C(=O)OCC`, the TGI in test [10] is 51 µM; in test [3], 45.4 µM; in [5], 27.5 µM; in test [6], above 100 µM; in test [7] it was 42 µM; in test [8], 85.3 µM. Also, in test [9], the TGI is above 100 µM.
For the molecule `COC1C2C[C@@H](O)CCC2C(C(=O)OCCl)C[C@H]1O` (some centres undefined), the TGI in test [10], in [3], in test [5], in [6], in test [7] and in test [8] was above 100 µM each time. Moreover, the TGI in test [9] was above 100 µM.
Turning to `Nc1nnc2c(-c3ccccc3)[nH]nc2n1`, the TGI in [3], in test [5], in test [7] and in test [8] was above 100 µM in each case.
Turning to `O=C(c1ccc(O)cc1O)C1C(c2ccc(O)cc2)OC(c2ccc(O)cc2)C1C(=O)c1ccc(O)cc1O` (centres undefined), the TGI in test [3] was above 100 µM; in [5], 29.5 µM; in test [11] it was 32.3 µM; in test [6] it was above 100 µM; in test [8], above 100 µM.
On to `COc1cccc2c1-c1nc(N)c3c(OC)cccc3c1C2=O`, for which, in [1], the TGI is above 100 µM.
For the molecule `CC(C)/C=C1\CCC(CN(C)C)C1=O` (centres undefined), the TGI in test [3] was 23.8 µM; in [11], 4.17 µM; in test [6] it was 11.2 µM; in test [1], 7.78 µM; in test [7] it was 10.3 µM; in [8], 28.6 µM. The same molecule showed a TGI in [9] of 8.72 µM.
`COc1ccc(-c2cc(=O)c3c(O)c(OC)c(OC)c(OC)c3o2)cc1OC` yielded a TGI in test [1] above 100 µM.
Turning to `CC(=O)OCC1OC(n2c(=S)n(-c3ccc([N+](=O)[O-])cc3)c(=O)c3ccccc32)C(OC(C)=O)C(OC(C)=O)C1OC(C)=O` (centres undefined), the TGI is 57.7 µM and 51 µM in test [10]; > 100 µM and 74.5 µM in [3]; 57.3 µM in test [5]; above 100 µM in test [6]; 82.3 µM in [1]; > 100 µM and 53.8 µM in [7]. The TGI in test [8] is > 100 µM and 87.7 µM; in test [9], 64.4 µM. Further, the GI50 in [3] is 34.8 µM and 24.1 µM; in test [6], 21.9 µM and 30.4 µM; in test [7], 23.7 µM and 18.1 µM.
Regarding `CN(C)CCNC(=O)c1cccc2c1nc(-c1ccc(F)cc1)c1ccccc12`, the TGI in test [3] is 25.7 µM; in test [5], 13 µM; in test [6], 15 µM; in test [7], 19.2 µM; in test [9], 27.4 µM.
As to `Cn1c(CBr)nc2c1C(=O)c1nc(CBr)[nH]c(=O)c1C2=O`, the TGI in [10], in test [6], in test [7], in test [8] and in test [9] was above 100 µM each time.
Turning to `Nc1ccc2n[se]nc2c1`, the TGI in test [10], in test [3], in test [5], in test [11], in test [6] and in test [7] was above 100 µM in each case. Besides, the TGI in test [8] and in test [9] was above 100 µM in each case.
Consider `O=C(O)C1=C/C(=C(/c2ccccc2)c2cc(C(=O)O)c(O)c3ccccc23)c2ccccc2C1=O`, for which, in test [1], the TGI is above 100 µM.
Turning to `CC1(C)CCC(Sc2ccccc2)O1` (centres undefined), the TGI in test [3], in [5], in test [11], in [6], in test [7] and in test [8] was above 100 µM throughout.
In the case of `COC1=C(N)C(=O)c2nc(-c3nc(C(=O)O)c(C)c(-c4ccc(OC)c(OC)c4O)c3N)ccc2C1=O`, the TGI is 0.402 µM in test [2]; 0.0324 µM and 0.0996 µM in [3]; 0.473 µM in [4]; 0.0194 µM in test [5]; 0.0179 µM in test [11]; 0.0524 µM in test [6]. Also, the TGI in test [1] was 0.0269 µM and 0.0153 µM; in [7], 0.0118 µM; in test [8], 1.12 µM and 0.184 µM; in test [9], 0.0395 µM. For the same molecule, in [1], the GI50 was 0.0117 µM.
On to `Cc1ccc(C(=O)CC2(O)C(=O)Nc3c(C)cc(Cl)cc32)cc1` (centres undefined), for which the TGI in [10], in [3], in test [5], in test [11], in test [6] and in [7] was above 100 µM throughout. The TGI in test [8] and in test [9] was above 100 µM in each case.
In the case of `CC1CC2C3CCC4=CC(=O)C=CC4(C)C3(F)C(O)CC2(C)C1(O)C(=O)COP(=O)(O)O` (centres undefined), the TGI is above 100 µM in test [3]; above 100 µM in test [5]; above 100 µM in test [11]; above 100 µM in test [6]; 47.4 µM in test [1]; above 100 µM in test [8]. The molecule also returned a TGI in test [9] above 100 µM.
Take `CC(=O)C1CCN(c2ccccc2)C1` (centres undefined): the TGI in [3], in test [5], in test [11], in test [6] and in test [7] was above 100 µM in each case.
With `COc1cc[c]([Sn]([c]2ccc(OC)cc2)([c]2ccc(OC)cc2)[c]2ccc(OC)cc2)cc1`, the GI50 is 23.7 µM in [3]; 25.2 µM in [5]; above 100 µM in [11]; 23.5 µM in test [7]; 18.2 µM in [8]; 3.81 µM in test [9]. For the same molecule, the TGI was 71 µM in test [3]; 96.5 µM in test [5]; above 100 µM in test [11]; above 100 µM in test [7]; 47 µM in test [8]; 21.1 µM in test [9].
Consider `CC(C)(CN1C(=O)C(Cl)=C(Cl)C1=O)CN1C(=O)C(Cl)=C(Cl)C1=O`, for which the TGI in test [3] was 45.1 µM; in test [5], 26.8 µM; in test [6], 9.82 µM; in test [7] it was 25.2 µM; in test [8], 40 µM; in test [9] it was 36.1 µM.
As for `Cc1nc(N)nc(N)c1CCCCc1ccc(N)cc1`, the TGI turned out to be 27.2 µM in [3], 23.6 µM in [11], 31.6 µM in [6] and 18.2 µM in test [8].
As to `CCCn1c2c(c3ccccc3c1=O)C(=O)c1ccccc1-2`, the TGI in test [1] is above 100 µM.
For `CC(C)(C)c1cc(CCC(=O)Nc2ccc(Cl)cc2)[nH]c(=S)n1`, the TGI in [10], in [5], in [11], in [6], in [7] and in test [8] was above 100 µM throughout. Also, in [9], the TGI is above 100 µM.
As to `COC(=O)C(=O)Cc1nc2ccccc2s1`, the TGI in test [3], in test [5], in test [6], in test [7], in test [8] and in [9] was above 100 µM in each case.
With `CN=c1ss/c(=N\C(=S)N(C)C)n1C`, the TGI in test [3], in test [5], in test [11], in test [6], in test [7] and in test [8] was above 100 µM throughout. For the same molecule, the TGI in test [9] is above 100 µM.
On to `COC(=O)CCSC(=O)Nc1ccc(N=Nc2ccccc2)cc1`, for which the TGI in test [10], in test [3], in test [5], in test [11], in test [6] and in test [7] was above 100 µM throughout. Also, the TGI in test [8] was 76.3 µM; in test [9], above 100 µM.
